Measured values taken from ChEMBL document CHEMBL1137837 (Bioorg Med Chem Lett, 2004).

Species: Oryctolagus cuniculus
Experiment: Concentration required to inhibit electrically induced contraction of superfused guinea-pig trachea was determined
Details: not given

Row | Structure (SMILES) | IC50
1 | O=CNc1cc([C@@H](O)CNCCc2ccc(OC3Cc4ccccc4C3)cc2)ccc1O | 251 nM
2 | O=CNc1cc([C@@H](O)CNCCc2ccc(OCCCCc3ccccc3)cc2)ccc1O | 71 nM
3 | O=CNc1cc([C@@H](O)CNCCc2cccc(OCCCCc3ccccc3)c2)ccc1O | 114 nM
4 | O=CNc1cc([C@@H](O)CNCCc2ccc(Oc3ccccc3)cc2)ccc1O | 120 nM
5 | O=CNc1cc([C@@H](O)CNCCc2ccc(OCCc3ccccc3)cc2)ccc1O | 1.1 nM
6 | O=CNc1cc([C@@H](O)CNCCc2cccc(OCCCOc3ccccc3)c2)ccc1O | 164 nM
7 | O=CNc1cc([C@@H](O)CNCCc2ccc(OCCCc3ccccc3)cc2)ccc1O | 38 nM

Species: Oryctolagus cuniculus
Experiment: Duration action in guinea pig
Details: not given

Row | Structure (SMILES) | Duration
8 | O=CNc1cc([C@@H](O)CNCCc2ccc(OCCCCc3ccccc3)cc2)ccc1O | 6.62 h
9 | O=CNc1cc([C@@H](O)CNCCc2cccc(OCCCOc3ccccc3)c2)ccc1O | 5.43 h

System: not listed separately
Experiment: Partition coefficient (logD)
Assay type: physicochemical
Details: octanol/water

Row | Structure (SMILES) | logD
10 | O=CNc1cc([C@@H](O)CNCCc2ccc(OCCCCc3ccccc3)cc2)ccc1O | 2.76
11 | OCc1cc(C(O)CNCCCCCCOCCCCc2ccccc2)ccc1O (stereo unspecified) [SALMETEROL] | 1.24
12 | O=CNc1cc([C@@H](O)CNCCc2cccc(OCCCOc3ccccc3)c2)ccc1O | 2.49

Same assay, conditions: octanol/water; read-out: logD

Row | Structure (SMILES) | logD
13 | O=CNc1cc([C@@H](O)CNCCc2ccc(OC3Cc4ccccc4C3)cc2)ccc1O | 2.95
14 | O=CNc1cc([C@@H](O)CNCCc2ccc(OCCCCc3ccccc3)cc2)ccc1O | 2.83
15 | O=CNc1cc([C@@H](O)CNCCc2cccc(OCCCCc3ccccc3)c2)ccc1O | 2.83
16 | O=CNc1cc([C@@H](O)CNCCc2ccc(Oc3ccccc3)cc2)ccc1O | 1.95
17 | O=CNc1cc([C@@H](O)CNCCc2ccc(OCCc3ccccc3)cc2)ccc1O | 1.67
18 | O=CNc1cc([C@@H](O)CNCCc2cccc(OCCCOc3ccccc3)c2)ccc1O | 2
19 | O=CNc1cc([C@@H](O)CNCCc2ccc(OCCCc3ccccc3)cc2)ccc1O | 2.35

Target: Beta-2 adrenergic receptor (Homo sapiens, UniProt P07550)
Details: not given

Beta-2 adrenergic receptor, sequence (P07550 whole entry): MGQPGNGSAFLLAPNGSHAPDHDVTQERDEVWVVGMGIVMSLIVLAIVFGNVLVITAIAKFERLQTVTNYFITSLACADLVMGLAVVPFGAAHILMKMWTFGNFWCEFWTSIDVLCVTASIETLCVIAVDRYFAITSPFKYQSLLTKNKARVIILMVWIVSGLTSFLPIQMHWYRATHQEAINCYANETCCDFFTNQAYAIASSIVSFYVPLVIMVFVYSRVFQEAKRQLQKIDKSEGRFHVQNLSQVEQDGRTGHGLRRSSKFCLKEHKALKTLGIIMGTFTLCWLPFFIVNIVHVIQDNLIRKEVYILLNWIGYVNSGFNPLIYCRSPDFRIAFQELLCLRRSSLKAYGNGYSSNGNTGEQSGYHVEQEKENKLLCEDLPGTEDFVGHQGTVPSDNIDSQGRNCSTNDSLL

Row | Structure (SMILES) | Ki
20 | O=CNc1cc([C@@H](O)CNCCc2ccc(OC3Cc4ccccc4C3)cc2)ccc1O | 11.6 nM
21 | O=CNc1cc([C@@H](O)CNCCc2ccc(OCCCCc3ccccc3)cc2)ccc1O | 9.2 nM
22 | O=CNc1cc([C@@H](O)CNCCc2cccc(OCCCCc3ccccc3)c2)ccc1O | 8.5 nM
23 | O=CNc1cc([C@@H](O)CNCCc2ccc(Oc3ccccc3)cc2)ccc1O | 35.4 nM
24 | O=CNc1cc([C@@H](O)CNCCc2ccc(OCCc3ccccc3)cc2)ccc1O | 7.8 nM
25 | O=CNc1cc([C@@H](O)CNCCc2cccc(OCCCOc3ccccc3)c2)ccc1O | 3.3 nM
26 | O=CNc1cc([C@@H](O)CNCCc2ccc(OCCCc3ccccc3)cc2)ccc1O | 5.9 nM
